What all share (experiment): NCI-60 cell line screen, 48 h
Test [1] concerns A498 renal.
The subject of test [2] is DMS 114 small cell lung.
Test [3] deals with DMS 273 small cell lung.
Test [4] relates to EKVX NSCLC.
The test system of test [5] is HCC-2998 colon.
Test [6] has as its system LXFL 529 NSCLC.
Test [7] relates to SK-OV-3 ovarian.
The subject of test [8] is SR leukemia.
The subject of test [9] is UACC-62 melanoma.
The subject of test [10] is RXF 393 renal.

The structures appear in SMILES notation. Values joined by “and” are separate entries in the source; they are usually repeats but may differ in a detail not shown here. Identical values can stand only once.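 Cultured in 96-well plates, cells were exposed to test compound for 48 hours across five concentrations. At the GI50, growth is halved. TGI marks complete inhibition of growth.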 Where only a bound is given, the exact number is not on record here.

For `O=c1c2ccccc2oc2ccccc12` (tested in a mixture with another compound), the TGI in test [1] is 82.5 µM; in [2], 5.08 µM; in [3], above 100 µM; in test [4], above 100 µM; in [5], 89.9 µM; in test [6] it was above 100 µM. In addition, the TGI in test [7] is 62.5 µM; in test [8] it was above 100 µM; in test [9], above 100 µM.
Take `Cc1ccc2oc(=O)c3c(O)c4cccc(OC5OC(C)C6O[C@@H](c7ccccc7)OC6C5OC5OC(C)C(O)C(O)C5O)c4c4oc(=O)c1c2c34` (stereo partly drawn): the GI50 is 0.167 µM in test [1]; 0.519 µM in [4]; 0.0747 µM in test [5]; 0.371 µM in test [7]; 0.0174 µM in [8]. Also, the TGI is 1.22 µM and 0.95 µM in test [1]; 3.16 µM in [2]; 1.09 µM in [3]; 4.09 µM and 2.55 µM in [4]; 1.72 µM in [5]; 6.5 µM in test [6]. Moreover, the TGI in [10] is 0.763 µM; in test [7], 0.967 µM and 2.41 µM; in [8] it was below 0.0472 µM; in [9] it was 0.444 µM and 0.432 µM.
With `O=C(O)c1c2c(cc3c(=O)c4ccccc4[nH]c13)CCCC2`, the TGI in [3], in test [4], in test [5], in test [6], in test [10] and in [7] was above 100 µM each time. Besides, the TGI in test [8] and in [9] was above 100 µM in each case.
As for `O=c1cc[nH]cc1-c1c[nH]ccc1=O`, the TGI in [1], in test [2], in test [3], in [4], in [5] and in test [6] was above 100 µM throughout. In addition, the TGI in [10], in [7] and in test [9] was above 100 µM throughout.
For the molecule `COC(=O)/C(C#N)=C1\CCC(OC)N1C` (stereo not drawn), the TGI in [2], in test [3], in test [4], in [5], in test [6] and in test [10] was above 100 µM throughout. The TGI in test [7] and in [9] was above 100 µM throughout.
As for `CN1CCN=C1c1nnn(-c2ccc([N+](=O)[O-])cc2)c1-c1ccccc1`, the TGI in test [1], in test [2], in test [3], in [4], in test [5] and in test [6] was above 100 µM throughout. The TGI in test [10], in test [7], in [8] and in test [9] was above 100 µM in each case.
As to `CS(=O)(=O)c1ccc(COP(N)(=O)N(CCCl)CCCl)cc1` (stereo not drawn), the TGI in [1], in test [2], in test [3], in test [5], in test [6] and in [10] was above 100 µM each time. The TGI in test [7], in [8] and in test [9] was above 100 µM each time.
In the case of `O=[N+]([O-])c1cc(/C=N\NS(=O)(=O)c2ccc(Cl)cc2)c(O)c([N+](=O)[O-])c1`, the TGI was 83 µM in test [1]; above 100 µM in [2]; 73.3 µM in [3]; above 100 µM in [4]; above 100 µM in test [5]; above 100 µM in test [6]. Further, the TGI in [10] was 91.9 µM; in test [7] it was 83.5 µM; in test [8], 45.2 µM; in test [9], above 100 µM.
On to `C=CCC12CC(=O)CCC1c1ccc(OC)cc1C2=O` (stereo not drawn), for which the TGI in [1], in [2], in test [3], in [4], in [5] and in test [6] was above 100 µM each time. The TGI in [10], in [7], in test [8] and in test [9] was above 100 µM in each case.
In the case of `COc1cc2c(cc1OC)C(C(CBr)CBr)N(C1CCCC1)CC2` (stereo not drawn), the TGI in test [1], in test [3], in [4], in test [5], in test [6] and in test [10] was above 100 µM throughout. Moreover, the TGI in test [7], in test [8] and in test [9] was above 100 µM in each case.
On to `Cc1ccc(N2C(=O)/C(=C/c3ccc(N(CCC#N)CCC#N)cc3)N=C2COc2ccc(Cl)cc2Cl)cc1`, for which the TGI in test [2], in test [4], in test [6], in [10], in test [7] and in test [8] was above 100 µM throughout. This molecule also yielded a TGI in [9] above 100 µM.
On to `CC(C)N(C(=O)C12C3C4C5(C(=O)O)C(C1C35I)C42C(=O)O)C(C)C` (stereo not drawn), for which the TGI in test [1], in test [2], in test [3], in [4], in test [5] and in test [6] was above 100 µM throughout. Also, the TGI in test [7], in test [8] and in [9] was above 100 µM throughout.
`COc1ccc(-c2cc3ccccc3[nH]c2=O)cc1OC`: the TGI in test [3], in test [4], in [5], in test [6], in [10] and in test [7] was above 100 µM each time. In addition, the TGI in test [8] and in [9] was above 100 µM in each case.
Regarding `CCC1CCCCN1CC(C(C)=O)C(c1ccccc1)c1c(O)c2ccccc2oc1=O` (stereo not drawn), the TGI in [1], in test [2], in test [3], in [4], in [10] and in test [7] was above 100 µM throughout. Moreover, the TGI in test [8] and in [9] was above 100 µM each time.
As for `CC1=C(CO)C(=O)O[C@@H]([C@@H](C)[C@H]2CC[C@H]3[C@@H]4C[C@H]5O[C@]56[C@@H](O)C=CC(=O)[C@]6(C)[C@H]4CC[C@]23C)C1`, the GI50 in [1] is 0.408 µM; in [4], 0.434 µM; in test [10], 0.44 µM; in [7], 3.93 µM. In addition, the TGI in test [1] was 1.53 µM; in [2], 1.95 µM; in [3], 1.53 µM; in test [4] it was 1.45 µM; in test [5], 1.56 µM; in test [6] it was 1.26 µM. The TGI in [10] is 1.66 µM; in test [7], 13.8 µM; in test [9], 2.7 µM.
`CCCCCCC(=O)C/C(CCC(=O)N(Cc1ccccc1)Cc1ccccc1)=N\NC(N)=O`: the TGI in test [1], in test [2], in [3], in test [4], in [5] and in test [6] was above 100 µM each time. The TGI in [10], in test [7], in test [8] and in test [9] was above 100 µM throughout.
Regarding `O=C1CC(C2(O)C(=O)Nc3ccc([N+](=O)[O-])cc32)c2ccccc21` (stereo not drawn), the TGI in test [1] is above 100 µM; in test [2], 23.9 µM; in [3], 41.4 µM; in test [4] it was above 100 µM; in [5] it was 44.9 µM; in test [6] it was 76.2 µM. Also, the TGI in test [10] was 45.5 µM; in [7], above 100 µM; in test [8], 46.6 µM; in [9], 40.2 µM.
Take `CCCC(O)c1cn(-c2cccc(S(=O)(=O)O)c2)nn1` (stereo not drawn): the TGI in test [1], in [2], in [3], in test [4], in test [5] and in test [6] was above 100 µM throughout. Further, the TGI in test [10], in test [7] and in [9] was above 100 µM in each case.
As to `CC1=NN(c2ccccc2)C(=O)C12[C@H](c1ccccc1)C2(C#N)C#N` (stereo partly drawn), the TGI in test [1] came to 31.6 µM; in test [3] it was 6.28 µM; in test [4], 33.6 µM; in [5], 34.1 µM; in test [6], 3.89 µM; in [10] it was 14.6 µM. Also, the results for the TGI in test [7] and in [9] were 32.7 µM and 12.4 µM, respectively.
Consider `O=C1OC(=O)C23CSCC12C1C=CC3O1` (stereo not drawn), for which the TGI in test [1], in test [2], in [3], in test [4], in test [5] and in test [6] was above 100 µM in each case. The TGI in test [10], in test [7] and in test [9] was above 100 µM in each case.
In the case of `O=C1C(Cl)=C(Cl)C(=O)N1c1ccc(Cl)c(Cl)c1Cl`, the TGI was above 100 µM in [1]; above 100 µM in [2]; above 100 µM in [3]; above 100 µM in test [4]; above 100 µM in [5]; 88 µM in test [6]. For the same molecule, the TGI in [7] was above 100 µM; in [8], 68 µM; in [9] it was above 100 µM.
With `CC(=O)OCC1OC(n2c(=O)[nH]c(=O)c3n[nH]nc32)C(OC(C)=O)C(OC(C)=O)C1OC(C)=O` (stereo not drawn), the TGI in test [1], in test [2], in test [3], in test [4], in test [5] and in test [6] was above 100 µM in each case. Also, the TGI in test [10], in [7], in test [8] and in [9] was above 100 µM throughout.
`COc1ccc(Br)c(CN2CCc3ccccc32)c1OS(=O)(=O)c1ccc(C)cc1`: the TGI in test [2] is 53.5 µM; in test [4] it was above 100 µM; in test [5], above 100 µM; in test [10], 65.7 µM; in test [8] it was above 100 µM.
Regarding `CCC(C)(O)c1cn(-c2ccc(Cl)cc2)nn1` (stereo not drawn), the TGI in test [1], in test [3], in [4], in test [5], in [6] and in test [10] was above 100 µM throughout. Also, the TGI in test [7], in [8] and in [9] was above 100 µM throughout.
On to `COc1cc(Cc2c(C)cc(OC)c3[nH]c4ccccc4c23)cc2c1[nH]c1ccccc12`, for which the TGI in [2] is above 25 µM; in test [3], 21.6 µM; in test [5] it was 14.7 µM; in [6], 22.4 µM; in test [7], above 25 µM; in test [8] it was above 25 µM. Further, the TGI in [9] is above 25 µM. For the same molecule, the GI50 is 7.64 µM in test [3]; 5.43 µM in [5]; 4.13 µM in test [6]; 8.8 µM in test [7]; 7.77 µM in test [8]; 5.61 µM in test [9].
Take `Cc1cc(Cl)cc2c1NC(=O)C2(O)CC(=O)c1ccc(Br)cc1` (stereo not drawn): the TGI in [1] is above 70.8 µM; in test [2], above 100 µM; in test [3], above 100 µM; in test [4] it was above 100 µM; in [5] it was above 100 µM; in test [6] it was above 100 µM. Besides, the figures for the TGI in test [10], in [7] and in [9] were 56.9 µM, above 100 µM and 56.2 µM, respectively.
For `COc1ccc(NC(=O)CC(=O)N/N=C(\C)c2cc3ccccc3oc2=O)cc1`, the TGI in [2], in test [3], in [4], in test [10], in test [7] and in [9] was above 100 µM throughout.
With `CCOC(=O)[C@@]12C(C)=CC(=O)O[C@]1(C)C1C(=O)NC(=O)C12` (stereo partly drawn), the TGI in test [1], in test [2], in test [3], in [4], in [5] and in test [6] was above 100 µM throughout. Further, the TGI in test [10], in test [7] and in test [9] was above 100 µM each time.

(Values after PubChem BioAssay (NCI).)
